The values that follow come from ChEMBL document CHEMBL4334438, “Discovery of novel glycogen synthase kinase-3α inhibitors: Structure-based virtual screening, preliminary SAR and biological evaluation for treatment of acute myeloid leukemia” (Eur J Med Chem, 2019).

Molecules are shown by their SMILES.

The target in assay [1] is CDK3/Cyclin E (Homo sapiens) (UniProt P24864+Q00526). Briefly: Inhibition of recombinant full length human CDK3/CyclinE assessed as residual activity at 1 uM using Histone H1 as substrate incubated for 40 mins in presence of [gamma-33ATP] by scintillation counting based radiometry assay relative to control. In kind it is protein-complex assay.
For another assay, the species on record is Homo sapiens. The assay can be described thus: Inhibition of recombinant human BRSK2 S251I mutant (2 to end residues) assessed as residual activity at 1 uM using KKLNRTLSFAEPG substrate incubated for 40 mins in presence of [gamma-33ATP] by scintillation counting based radiometry assay relative to control.
The target of assay [2] is Homeodomain-interacting protein kinase 3 (Homo sapiens) (UniProt Q9H422). Briefly: Inhibition of human HIPK3 (161 to 562 residues) assessed as residual activity at 1 uM using myelin basic protein as substrate after 40 mins by [gamma-33ATP] radiometric assay relative to control.
Assay [3] concerns the target Rhodopsin kinase GRK1 (Homo sapiens) (UniProt Q15835). The assay can be described thus: Inhibition of recombinant full length human GRK1 assessed as residual activity at 1 uM using KKKKERLLDDRHDSGLDSMKDEE as substrate at 40 mins in presence of [gamma-33ATP] by scintillation counting based radiometry assay relative to control.
Assay [4] deals with Angiopoietin-1 receptor (Homo sapiens), Q02763 [Q939H,Q940H]. The assay can be described thus: Inhibition of human Tie2 Q939H/Q940H mutant (771 to end residues) assessed as residual activity at 1 uM using poly(Glu, Tyr) 4:1 as substrate measured after 40 mins in presence of [gamma33P]ATP by scintillation counting method relative to control.
In assay [5] the target is Serine/threonine-protein kinase tousled-like 1 (Homo sapiens) (UniProt Q9UKI8). The assay can be described thus: Inhibition of recombinant full-length human TLK1 at 1 uM assessed as residual activity at 1 uM using casein as substrate measured after 40 mins in presence of [gamma33P]ATP by scintillation counting method relative to control.
Assay [6] deals with Mitogen-activated protein kinase kinase kinase 2 (Homo sapiens) (UniProt Q9Y2U5). Briefly: Inhibition of recombinant full length human MEKK2 assessed as residual activity at 1 uM using myelin basic protein as substrate incubated for 40 mins in presence of [gamma-33ATP by scintillation counting based radiometry assay relative to control.
Mitogen-activated protein kinase kinase kinase 2 (Homo sapiens), sequence (Q9Y2U5 whole entry): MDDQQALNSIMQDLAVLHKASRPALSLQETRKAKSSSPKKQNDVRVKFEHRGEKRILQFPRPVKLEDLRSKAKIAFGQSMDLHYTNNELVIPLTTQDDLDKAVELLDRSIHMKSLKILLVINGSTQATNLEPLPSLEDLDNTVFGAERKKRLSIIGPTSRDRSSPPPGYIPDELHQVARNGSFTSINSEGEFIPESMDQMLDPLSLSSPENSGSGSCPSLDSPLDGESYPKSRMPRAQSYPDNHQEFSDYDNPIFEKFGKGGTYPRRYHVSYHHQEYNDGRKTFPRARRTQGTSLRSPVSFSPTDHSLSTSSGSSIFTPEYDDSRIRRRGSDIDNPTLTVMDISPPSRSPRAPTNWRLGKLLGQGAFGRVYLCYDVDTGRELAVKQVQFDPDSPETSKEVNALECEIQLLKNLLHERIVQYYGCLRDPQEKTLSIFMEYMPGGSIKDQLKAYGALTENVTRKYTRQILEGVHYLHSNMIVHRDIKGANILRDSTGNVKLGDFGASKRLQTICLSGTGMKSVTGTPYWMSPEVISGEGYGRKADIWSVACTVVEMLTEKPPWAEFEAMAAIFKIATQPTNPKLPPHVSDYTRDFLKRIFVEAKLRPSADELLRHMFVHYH
Assay [7] concerns the target Testis-specific serine/threonine-protein kinase 2 (Homo sapiens) (UniProt Q96PF2). Briefly: Inhibition of recombinant full-length human TSSK2 at 1 uM assessed as residual activity at 1 uM using KKKVSRSGLYRSPSMPENLNRPR as substrate measured after 40 mins in presence of [gamma33P]ATP by scintillation counting method relative to control.
Assay [8] has as its target Ephrin type-B receptor 1 (Homo sapiens) (UniProt P54762). Briefly: Inhibition of recombinant human EphB1 (564 to end residues) assessed as residual activity at 1 uM using KVEKIGEGTYGVVYK as substrate at 40 mins in presence of [gamma-33ATP] by scintillation counting based radiometry assay relative to control.
Assay [9] addresses Tau-tubulin kinase 2 (Homo sapiens) (UniProt Q6IQ55). The assay can be described thus: Inhibition of human TTBK2 (1 to 331 residues) assessed as residual activity at 1 uM using Casein as substrate measured after 40 mins in presence of [gamma33P]ATP by scintillation counting method relative to control.
For assay [10], the target named is Casein kinase 2 (Homo sapiens) (UniProt P67870+P68400+P19784+Q8NEV1). Briefly: Inhibition of recombinant human CK2 assessed as residual activity at 1 uM in presence of [gamma-33ATP] by scintillation counting based radiometry assay relative to control. In kind it is protein assay.
Assay [11] concerns the target Mitogen-activated protein kinase kinase kinase 5 (Homo sapiens) (UniProt Q99683). Briefly: Inhibition of recombinant human ASK1 (649 to 946 residues) assessed as residual activity at 1 uM using myelin basic protein as substrate incubated for 40 mins in presence of [gamma-33ATP] by scintillation counting based radiometry assay relative to control.
The target of assay [12] is Serine/threonine-protein kinase TAO1 (Homo sapiens) (UniProt Q7L7X3). Briefly: Inhibition of human TAO1 (1 to 327 residues) assessed as residual activity at 1 uM using myelin basic protein as substrate measured after 40 mins in presence of [gamma33P]ATP by scintillation counting method relative to control.
In assay [13] the target is Dual specificity protein kinase CLK2 (Homo sapiens) (UniProt P49760). The assay can be described thus: Inhibition of recombinant human CLK2 (138 to end residues) assessed as residual activity at 1 uM using YRRAAVPPSPSLSRHSSPHQS(p)EDEEE as substrate incubated 40 mins in presence of [gamma-33ATP] by scintillation counting based radiometry assay relative to control.
In assay [14] the target is Serine/threonine-protein kinase/endoribonuclease IRE1 (Homo sapiens) (UniProt O75460). Briefly: Inhibition of human IRE1 activated (465 to end residues) assessed as residual activity at 1 uM using myelin basic protein as substrate after 40 mins by [gamma-33ATP] radiometric assay relative to control.
Assay [15] concerns Casein kinase I isoform gamma-3 (Homo sapiens), Q9Y6M4 [UNDEFINED MUTATION]. The assay can be described thus: Inhibition of recombinant human CK1gamma3 K91E/R174G/E302D mutant (1 to 330 residues) assessed as residual activity at 1 uM using KRRRALS(p)VASLPGL as substrate incubated for 40 mins in presence of [gamma-33ATP] by scintillation counting based radiometry assay relative to control.

Assay [16] concerns the target Casein kinase II subunit alpha (Homo sapiens) (UniProt P68400). Briefly: Inhibition of recombinant full length human CK2alpha1 assessed as residual activity at 1 uM using RRRDDDSDDD as substrate incubated 40 mins in presence of [gamma-33ATP] by scintillation counting based radiometry assay relative to control.
Assay [17] addresses Tyrosine-protein kinase Srms (Homo sapiens) (UniProt Q9H3Y6). The assay can be described thus: Inhibition of human SRMS assessed as residual activity at 1 uM by radiometric method relative to control.
The subject of assay [18] is Proto-oncogene tyrosine-protein kinase Src (Homo sapiens), P12931 [T341M]. Briefly: Inhibition of recombinant full-length human Src T341M mutant at 1 uM assessed as residual activity at 1 uM using GGEEEEYFELVKKKK as substrate measured after 40 mins in presence of [gamma33P]ATP by scintillation counting method relative to control.
For assay [19], the target named is Myosin light chain kinase 2, skeletal/cardiac muscle (Homo sapiens) (UniProt Q9H1R3). Briefly: Inhibition of recombinant full-length human MYLK2 at 1 uM using KKLNRTLSFAEPG as substrate measured after 40 mins in presence of [gamma33P]ATP by scintillation counting method relative to control. The arrangement: scale not given: the % may be the effect or the level left.

The target of assay [20] is Ephrin type-A receptor 3 (Homo sapiens) (UniProt P29320). Briefly: Inhibition of recombinant human EphA3 (578 to end residues) assessed as residual activity at 1 uM using poly(Glu, Tyr) 4:1 as substrate at 40 mins in presence of [gamma-33ATP] by scintillation counting based radiometry assay relative to control.

Tyrosine-protein kinase Srms (Homo sapiens), sequence (Q9H3Y6 whole entry): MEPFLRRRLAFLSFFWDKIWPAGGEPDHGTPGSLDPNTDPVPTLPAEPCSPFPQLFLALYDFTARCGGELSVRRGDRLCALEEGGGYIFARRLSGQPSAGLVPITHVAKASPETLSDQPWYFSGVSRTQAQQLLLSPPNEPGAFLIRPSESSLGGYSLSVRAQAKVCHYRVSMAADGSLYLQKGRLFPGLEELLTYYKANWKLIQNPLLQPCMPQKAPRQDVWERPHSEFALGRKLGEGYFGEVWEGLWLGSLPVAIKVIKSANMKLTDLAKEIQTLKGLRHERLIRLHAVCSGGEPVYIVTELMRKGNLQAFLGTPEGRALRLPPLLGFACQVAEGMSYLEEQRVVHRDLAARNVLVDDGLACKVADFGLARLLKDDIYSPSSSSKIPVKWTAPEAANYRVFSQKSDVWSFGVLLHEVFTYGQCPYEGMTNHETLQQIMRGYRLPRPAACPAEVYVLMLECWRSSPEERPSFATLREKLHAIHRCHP
Testis-specific serine/threonine-protein kinase 2 (Homo sapiens), sequence (Q96PF2 whole entry): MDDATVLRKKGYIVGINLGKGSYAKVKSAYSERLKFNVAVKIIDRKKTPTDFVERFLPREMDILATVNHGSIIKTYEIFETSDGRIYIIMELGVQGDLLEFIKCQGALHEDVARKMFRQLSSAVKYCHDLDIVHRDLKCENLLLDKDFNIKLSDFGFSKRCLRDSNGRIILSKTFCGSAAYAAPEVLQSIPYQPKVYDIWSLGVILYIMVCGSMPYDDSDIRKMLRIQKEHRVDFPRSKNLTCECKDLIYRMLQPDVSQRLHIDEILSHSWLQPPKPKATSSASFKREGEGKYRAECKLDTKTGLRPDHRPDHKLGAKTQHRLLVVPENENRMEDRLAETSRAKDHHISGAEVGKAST
Rhodopsin kinase GRK1 (Homo sapiens), sequence (Q15835 whole entry): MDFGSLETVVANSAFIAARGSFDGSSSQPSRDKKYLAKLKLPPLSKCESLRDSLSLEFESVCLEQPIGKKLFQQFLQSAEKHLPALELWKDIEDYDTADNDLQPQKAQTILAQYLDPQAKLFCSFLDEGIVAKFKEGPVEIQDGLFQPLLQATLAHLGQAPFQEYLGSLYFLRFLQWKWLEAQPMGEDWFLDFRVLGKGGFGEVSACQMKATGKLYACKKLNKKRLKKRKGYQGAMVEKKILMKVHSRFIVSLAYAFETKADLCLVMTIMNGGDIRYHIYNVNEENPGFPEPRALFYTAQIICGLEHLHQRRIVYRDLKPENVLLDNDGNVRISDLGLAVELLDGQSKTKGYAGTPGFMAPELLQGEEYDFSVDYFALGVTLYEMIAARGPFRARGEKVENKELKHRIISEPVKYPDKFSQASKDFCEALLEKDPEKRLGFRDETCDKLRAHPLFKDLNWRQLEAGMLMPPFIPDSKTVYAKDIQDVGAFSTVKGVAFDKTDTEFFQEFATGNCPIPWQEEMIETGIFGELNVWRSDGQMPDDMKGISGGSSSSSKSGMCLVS
Tau-tubulin kinase 2 (Homo sapiens), sequence (Q6IQ55 whole entry, the tested form may be a part): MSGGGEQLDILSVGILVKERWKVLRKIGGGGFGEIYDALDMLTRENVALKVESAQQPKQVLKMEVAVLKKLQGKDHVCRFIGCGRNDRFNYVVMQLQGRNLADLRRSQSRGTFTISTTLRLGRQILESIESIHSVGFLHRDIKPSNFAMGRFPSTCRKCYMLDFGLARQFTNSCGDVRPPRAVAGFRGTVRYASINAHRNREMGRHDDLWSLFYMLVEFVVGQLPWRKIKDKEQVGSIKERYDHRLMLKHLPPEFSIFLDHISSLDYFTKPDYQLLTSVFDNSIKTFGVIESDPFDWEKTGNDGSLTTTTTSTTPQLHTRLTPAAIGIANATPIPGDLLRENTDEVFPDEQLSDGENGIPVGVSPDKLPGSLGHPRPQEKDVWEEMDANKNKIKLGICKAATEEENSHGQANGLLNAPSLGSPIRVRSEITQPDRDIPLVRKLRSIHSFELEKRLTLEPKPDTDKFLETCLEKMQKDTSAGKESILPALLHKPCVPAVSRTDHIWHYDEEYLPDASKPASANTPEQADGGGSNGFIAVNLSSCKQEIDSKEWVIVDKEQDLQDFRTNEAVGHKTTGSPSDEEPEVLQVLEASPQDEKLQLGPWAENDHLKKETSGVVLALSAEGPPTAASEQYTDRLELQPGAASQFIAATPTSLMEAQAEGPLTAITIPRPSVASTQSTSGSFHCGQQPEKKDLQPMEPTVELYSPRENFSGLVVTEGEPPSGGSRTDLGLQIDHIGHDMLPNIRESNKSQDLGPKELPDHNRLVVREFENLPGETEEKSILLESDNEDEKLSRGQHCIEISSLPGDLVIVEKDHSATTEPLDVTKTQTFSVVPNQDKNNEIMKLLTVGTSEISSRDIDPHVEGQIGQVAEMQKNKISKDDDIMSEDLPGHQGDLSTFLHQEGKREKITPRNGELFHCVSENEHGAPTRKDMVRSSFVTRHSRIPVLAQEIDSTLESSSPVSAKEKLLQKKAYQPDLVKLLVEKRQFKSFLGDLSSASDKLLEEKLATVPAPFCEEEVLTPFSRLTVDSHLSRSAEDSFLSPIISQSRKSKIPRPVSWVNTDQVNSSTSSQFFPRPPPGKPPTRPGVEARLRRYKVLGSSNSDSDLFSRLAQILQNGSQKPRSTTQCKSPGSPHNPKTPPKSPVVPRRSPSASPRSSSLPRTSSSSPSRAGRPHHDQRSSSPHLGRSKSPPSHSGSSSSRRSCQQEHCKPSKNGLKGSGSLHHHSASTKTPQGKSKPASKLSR
Mitogen-activated protein kinase kinase kinase 5 (Homo sapiens), sequence (Q99683 whole entry, the tested form may be a part): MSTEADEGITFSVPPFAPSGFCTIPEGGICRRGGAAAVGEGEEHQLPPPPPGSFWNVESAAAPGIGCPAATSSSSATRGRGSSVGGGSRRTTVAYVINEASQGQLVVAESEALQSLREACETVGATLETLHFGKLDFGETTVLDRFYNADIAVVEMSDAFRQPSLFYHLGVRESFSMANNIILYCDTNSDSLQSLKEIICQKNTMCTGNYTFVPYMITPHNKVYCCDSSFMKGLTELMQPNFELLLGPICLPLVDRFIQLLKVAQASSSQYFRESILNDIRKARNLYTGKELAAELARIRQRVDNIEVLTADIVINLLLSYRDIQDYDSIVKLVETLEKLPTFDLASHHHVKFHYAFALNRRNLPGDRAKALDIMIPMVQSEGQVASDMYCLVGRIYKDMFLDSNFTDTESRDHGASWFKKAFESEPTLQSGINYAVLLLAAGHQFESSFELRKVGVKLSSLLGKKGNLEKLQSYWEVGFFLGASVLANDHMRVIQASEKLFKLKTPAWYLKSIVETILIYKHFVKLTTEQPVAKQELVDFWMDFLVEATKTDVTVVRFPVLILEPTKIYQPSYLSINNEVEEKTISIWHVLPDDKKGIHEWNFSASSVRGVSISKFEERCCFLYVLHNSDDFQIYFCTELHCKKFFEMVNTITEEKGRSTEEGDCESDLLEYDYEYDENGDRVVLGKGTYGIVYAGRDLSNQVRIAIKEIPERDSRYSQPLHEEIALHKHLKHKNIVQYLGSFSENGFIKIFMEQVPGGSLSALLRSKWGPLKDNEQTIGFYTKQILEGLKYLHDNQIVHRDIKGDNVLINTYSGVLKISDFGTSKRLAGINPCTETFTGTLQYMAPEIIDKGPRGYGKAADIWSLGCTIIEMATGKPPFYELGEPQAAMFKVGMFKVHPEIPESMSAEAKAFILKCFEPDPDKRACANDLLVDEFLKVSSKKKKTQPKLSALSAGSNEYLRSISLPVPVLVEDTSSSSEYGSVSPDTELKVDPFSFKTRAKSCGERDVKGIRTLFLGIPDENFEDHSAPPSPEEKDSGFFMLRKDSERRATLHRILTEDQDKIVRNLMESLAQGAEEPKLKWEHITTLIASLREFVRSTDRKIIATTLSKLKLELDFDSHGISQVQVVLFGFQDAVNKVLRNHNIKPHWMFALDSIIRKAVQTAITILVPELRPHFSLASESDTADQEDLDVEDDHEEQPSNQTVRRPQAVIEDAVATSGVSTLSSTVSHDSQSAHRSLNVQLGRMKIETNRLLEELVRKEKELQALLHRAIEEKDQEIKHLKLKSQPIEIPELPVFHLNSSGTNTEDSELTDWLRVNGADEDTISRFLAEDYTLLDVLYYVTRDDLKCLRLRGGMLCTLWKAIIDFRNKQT
Casein kinase II subunit alpha (Homo sapiens), sequence (P68400 whole entry, looked up): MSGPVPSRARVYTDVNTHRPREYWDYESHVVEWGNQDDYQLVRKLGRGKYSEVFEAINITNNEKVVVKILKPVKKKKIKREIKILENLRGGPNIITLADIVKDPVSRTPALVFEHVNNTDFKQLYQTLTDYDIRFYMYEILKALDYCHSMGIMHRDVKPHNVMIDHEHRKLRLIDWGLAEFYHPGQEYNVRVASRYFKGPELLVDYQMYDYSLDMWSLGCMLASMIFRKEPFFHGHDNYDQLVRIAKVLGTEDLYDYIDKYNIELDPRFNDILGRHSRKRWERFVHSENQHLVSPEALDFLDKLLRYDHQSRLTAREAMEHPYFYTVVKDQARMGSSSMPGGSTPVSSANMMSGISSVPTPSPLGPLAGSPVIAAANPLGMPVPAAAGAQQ

Consider `C=CCOC(=O)c1cc(-c2ccc(/C=C3/NC(=S)NC3=O)o2)ccc1Cl`, for which the Activity in [1] amounted to 88%; in the assay filed under Homo sapiens, 71%; in assay [2], 7%; in assay [3], 104%; in assay [4], 107%; in assay [5], 101%. For the same molecule, the Activity in assay [6] stood at 98%; in [7], 102%; in [8] it was 102%; in assay [9] it was 111%; in assay [10], 58%; in assay [11], 102%. The Activity in assay [12] amounted to 82%; in [13], 38%; in assay [14], 91%; in assay [15], 121%; in assay [16], 59%; in assay [17], 114%. In addition, the results for the Activity in [18], in assay [19] and in [20] were 92%, 92% and 97%, respectively.
Take `N=C1NC(=O)/C(=C\c2ccc(-c3cccc([N+](=O)[O-])c3)o2)S1`: the Activity is 80% in [1]; 42% in the assay filed under Homo sapiens; 2% in assay [2]; 97% in assay [3]; 113% in [4]; 110% in assay [5]. Moreover, the Activity in [6] came out at 93%; in [7], 108%; in assay [8] it was 115%; in assay [9], 107%; in assay [10] it was 43%; in [11], 101%. Further, the Activity in assay [12] came to 52%; in assay [13] it was 39%; in assay [14] it was 79%; in assay [15], 97%; in assay [16] it was 57%; in assay [17] it was 95%. Moreover, the Activity was determined as 97% in [18], 98% in [19] and 111% in assay [20].
